The source made the active and inactive calls. The calls are words filed in the database; no cut-off is given here.
Tests used:
Sarcoma-180 [1] = assay: Cytotoxicity against mouse Sarcoma-180 cells assessed as reduction in cell proliferation by measuring growth rate at 1 uM measured after 3 days by WST-8 assay relative to control; type: functional
Sarcoma-180 [2] = assay: Cytotoxicity against mouse Sarcoma-180 cells assessed as reduction in cell proliferation at 1 uM measured up to 5 days by WST-8 assay; type: functional, cell-based; conditions: time day <=5
Sarcoma-180 [3] = assay: (§1) Elongation of circadian rhythms in dexamethasone-induced mouse Sarcoma-180 cells assessed as increase in Bmal1 period time at 5 uM measured for 1 mins at 10 min interval up to 96 hrs by bioluminescence based Bmal1 promoter-reporter gene assay (reference value: 25.70 +/- 0.30 hrs); type: functional; conditions: time hrs <=96
[4] = target: T1, Nuclear receptor ROR-alpha (Mus musculus) (UniProt P51448); assay: Agonist activity at RORalpha in mouse NIH3T3 cells at 1 to 1000 uM incubated for 24 hrs by luminescence based assay; type: cell-based; conditions: dose 1-1000 µM
T1 sequence (whole entry): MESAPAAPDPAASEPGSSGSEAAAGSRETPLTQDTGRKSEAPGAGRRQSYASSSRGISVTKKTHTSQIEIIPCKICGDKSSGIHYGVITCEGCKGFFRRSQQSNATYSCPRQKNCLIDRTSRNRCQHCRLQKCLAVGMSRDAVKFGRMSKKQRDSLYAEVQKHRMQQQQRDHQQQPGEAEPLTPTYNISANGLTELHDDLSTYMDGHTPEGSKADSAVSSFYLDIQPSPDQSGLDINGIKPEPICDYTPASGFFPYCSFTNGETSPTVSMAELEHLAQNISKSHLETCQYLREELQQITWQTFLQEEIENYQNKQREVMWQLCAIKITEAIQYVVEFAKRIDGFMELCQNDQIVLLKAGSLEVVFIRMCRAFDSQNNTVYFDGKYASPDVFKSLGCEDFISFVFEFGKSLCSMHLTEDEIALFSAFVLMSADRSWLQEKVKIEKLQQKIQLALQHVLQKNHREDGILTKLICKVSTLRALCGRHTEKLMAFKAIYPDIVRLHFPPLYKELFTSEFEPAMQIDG

[5] = target: T2, Nuclear receptor ROR-alpha (Mus musculus, UniProt P51448); assay: Inverse agonist activity at RORalpha in mouse NIH3T3 cells incubated for 24 hrs by luminescence based assay; type: cell-based
T2 sequence (P51448 whole entry): T1 sequence (whole entry)

NIH3T3 [6] = assay: Transcriptional upregulation of […] mRNA expression in dexamethasone-induced mouse NIH3T3 cells at 15 uM measured after 24 hrs by qPCR analysis relative to control; type: functional
NIH3T3 [7] = assay: Transcriptional upregulation of […] mRNA expression in dexamethasone-induced mouse NIH3T3 cells at 5 uM measured after 24 hrs by qPCR analysis relative to control; type: functional
NIH3T3 [8] = assay: Transcriptional upregulation of Rora mRNA expression in dexamethasone-induced mouse NIH3T3 cells at 15 uM measured after 24 hrs by qPCR analysis relative to control; type: functional
NIH3T3 [9] = assay: Transcriptional upregulation of Rora mRNA expression in dexamethasone-induced mouse NIH3T3 cells at 5 uM measured after 24 hrs by qPCR analysis relative to control; type: functional
Sarcoma-180 [10] = assay: Transcriptional upregulation of Bmal1 mRNA expression in dexamethasone-induced mouse Sarcoma-180 cells at 5 uM measured after 24 hrs by RT-qPCR analysis relative to control; type: functional
[11] = Induction of Bmal1 promotor activity in dexamethasone-induced mouse NIH3T3 cells transfected with Bmal1 promotor-reporter plasmids at 15 uM measured after 24 hrs by bioluminescence assay relative to control; type: functional
[12] = Induction of Bmal1 promotor activity in dexamethasone-induced mouse NIH3T3 cells transfected with Bmal1 promotor-reporter plasmids at 5 uM measured after 24 hrs by bioluminescence assay relative to control; type: functional
Sarcoma-180 [13] = assay: Transcriptional upregulation of Bmal1 mRNA expression in dexamethasone-induced mouse Sarcoma-180 cells at 1 uM measured after 24 hrs by RT-qPCR analysis relative to control; type: functional
NIH3T3 [14] = assay: Elongation of circadian rhythms in dexamethasone-induced mouse NIH3T3 cells assessed as increase in Bmal1 period time at 1 uM measured for 1 mins at 10 min interval up to 96 hrs by dual luciferase reporter gene assay (reference value: 25.02 +/- 0.15 hrs); type: functional; conditions: time hrs <=96
NIH3T3 [15] = assay: Elongation of circadian rhythms in dexamethasone-induced mouse NIH3T3 cells assessed as increase in Bmal1 period time at 5 uM measured for 1 mins at 10 min interval up to 96 hrs by dual luciferase reporter gene assay (reference value: 25.02 +/- 0.15 hrs); type: functional; conditions: time hrs <=96
Sarcoma-180 [16] = assay: Elongation of circadian rhythms in dexamethasone-induced mouse Sarcoma-180 cells assessed as increase in Bmal1 period length at 1 to 5 uM measured for 1 mins at 10 min interval up to 96 hrs by bioluminescence based Bmal1 promoter-reporter gene assay; type: functional, cell-based; conditions: dose 1-5 µM, time hrs <=96
MEF [17] = assay: as §1, with “embryonic fibroblasts expressing PER2-luc gene” for “Sarcoma-180 cells”, “PER2” for “Bmal1”, “1” for “5”, “23.17” for “25.70”, “0.10” for “0.30”; type: functional; conditions: time hrs <=96
MEF [18] = assay: as §1, with “embryonic fibroblasts expressing PER2-luc gene” for “Sarcoma-180 cells”, “PER2” for “Bmal1”, “1.67” for “5”, “23.17” for “25.70”, “0.10” for “0.30”; type: functional; conditions: time hrs <=96
MEF [19] = assay: as §1, with “embryonic fibroblasts expressing PER2-luc gene” for “Sarcoma-180 cells”, “PER2” for “Bmal1”, “23.17” for “25.70”, “0.10” for “0.30”; type: functional; conditions: time hrs <=96
MEF [20] = assay: as §1, with “embryonic fibroblasts expressing PER2-luc gene” for “Sarcoma-180 cells”, “PER2” for “Bmal1”, “25” for “5”, “23.17” for “25.70”, “0.10” for “0.30”; type: functional; conditions: time hrs <=96
NIH3T3 [21] = assay: Transcriptional upregulation of Bmal1 mRNA expression in dexamethasone-induced mouse NIH3T3 cells at 1 uM measured after 24 hrs by RT-qPCR analysis relative to control; type: functional
NIH3T3 [22] = assay: Transcriptional upregulation of Bmal1 mRNA expression in dexamethasone-induced mouse NIH3T3 cells at 5 uM measured after 24 hrs by RT-qPCR analysis relative to control; type: functional
Sarcoma-180 [23] = assay: Cytotoxicity against mouse Sarcoma-180 cells assessed as reduction in cell proliferation at 5 uM measured up to 5 days by WST-8 assay; type: functional, cell-based; conditions: time day <=5
Sarcoma-180 [24] = assay: Elongation of circadian rhythms in dexamethasone-induced mouse Sarcoma-180 cells assessed as increase in Bmal1 period length measured for 1 mins at 10 min interval up to 96 hrs by bioluminescence based Bmal1 promoter-reporter gene assay; type: functional, cell-based; conditions: dose 1-5 µM, time hrs <=96

In the case of `CC1=C(CO)C(=O)O[C@@H]([C@@H](C)[C@H]2CC[C@H]3[C@@H]4C[C@H]5O[C@]56[C@@H](O)C=CC(=O)[C@]6(C)[C@H]4CC[C@]23C)C1`, the Activity (Sarcoma-180 [1]; time 3.0 day) is reported as “Active”, the Activity (Sarcoma-180 [2]) is reported as “Active” and the Activity (Sarcoma-180 [3]) is reported as “Active”. For the same compound, the Activity [4] was “inactive”.
In the case of `CC(C)CCC[C@@H](C)[C@H]1CC[C@H]2C3=CC=C4C[C@@H](O)CC[C@]4(C)[C@H]3CC[C@]12C`, the Activity ([4]; filed as agonist) is reported as “Active”.
In the case of `CO[C@H]1CC(=O)[C@]2(C)[C@H]3CC[C@]4(C)[C@@H]([C@H](C)[C@H]5CC(C)=C(CO)C(=O)O5)CC[C@H]4[C@@H]3C[C@H]3O[C@]32[C@H]1O`, the IC50 [5] is reported as 11.3 µM, the “fold change (FC)” value (NIH3T3 [6]) is reported as 1.57 and the “fold change (FC)” value (NIH3T3 [7]) is reported as 1.2. For the same compound, the “fold change (FC)” value (NIH3T3 [8]) was 1.68, the “fold change (FC)” value (NIH3T3 [9]) was 1.61 and the “fold change (FC)” value (Sarcoma-180 [10]) was 2.13. For the same compound, the “fold change (FC)” value [11] was 1.83, the “fold change (FC)” value [12] was 1.32 and the “fold change (FC)” value (Sarcoma-180 [13]) was 1.34. The Activity (Sarcoma-180 [1]; time 3 day) was 59.8%, the Activity (Sarcoma-180 [2]) was “Active” and the Time (Sarcoma-180 [3]) was 31.7 h. The Time (NIH3T3 [14]) was 25.01 h, the Time (NIH3T3 [15]) was 26.06 h and the Activity (Sarcoma-180 [16]) was “Active”. The Time (MEF [17]) was 22.98 h, the Time (MEF [18]) was 24.17 h and the Time (MEF [19]) was 25.36 h. For the same compound, the Time (MEF [20]) was 26.11 h, the Activity (NIH3T3 [21]) was 1.43 fold change and the Activity (NIH3T3 [22]) was 1.75 fold change. For the same compound, the Activity (Sarcoma-180 [23]) was “Active” and the Activity (Sarcoma-180 [24]) was “Dose-Dependent Effect”.

Source: ChEMBL document CHEMBL4825704, “Withanolide Derivative 2,3-Dihydro-3β-methoxy Withaferin-A Modulates the Circadian Clock via Interaction with RAR-Related Orphan Receptor α (RORa)” (J Nat Prod, 2021)
